{"source": "patent US11214548B2", "about": "“Cannabinoid receptor modulators” (priority 2009, dated 2022)", "key": {"[1]": {"test_system": "FCA-induced hyperalgesia model of inflammatory pain", "experiment": "FCA-induced hyperalgesia in rats", "type": "in vivo, male Sprague Dawley rats", "settings": "0.1, 1, 3, 10 and 30 mg/kg orally, 1 h post dosing, FIG. 1", "description": "Example 7: Effect of Compounds on FCA-Induced Hyperalgesia in Rats\nMale Sprague Dawley rats from Harlan (200-225 g when received) were used. Upon arrival, rats were housed 4 per cage in shoe-box polycarbonate cages with wire tops, wood chip bedding and suspended food and water bottles. Animals were acclimated for 5-7 days prior to being injected with Freund's complete adjuvant (FCA) (Sigma; catalog #5881).\n2 days (48 h) before testing compounds, baseline readings of all rats were taken right before FCA injection. Rats were then injected with 50 μL FCA containing 1 mg/mL Mtb (Mycobacterium tuberculosis) in right hind footpad under inhalation anesthesia (isoflurane). 48 hours after FCA injection, readings were taken as pre-dosing baseline and then rats were dosed orally with 0.5 mL of vehicle or compound (0.5 mL per 250 g rat). Readings were taken again at 1 h post dosing. All readings were taken with an Analgesy-Meter (Ugo Basile) which measures mechanical hyperalgesia via paw pressure.\nFCA-induced hyperalgesia was tested with an Analgesy-Meter. Briefly, the Analgesy Meter applied an increasing pressure to the right hind paw. The paw withdrawal threshold was the pressure leading to withdrawal.\nMeanwhile a group of rats were dosed orally with 50 mg/kg of Diclofenac as a positive control. Readings were taken again at 1 h post dosing. Dosing volume was 500 μL per 250 g rat."}, "[2]": {"test_system": "paclitaxel model of cancer pain", "experiment": "Paclitaxel-induced allodynia in Sprague Dawley rats", "type": "in vivo, male Sprague Dawley rats", "settings": "10 mg/kg orally", "description": "Example 8: Paclitaxel-Induced Allodynia in Sprague Dawley Rats\nMale Sprague Dawley rats [200-250 g] (Harlan Laboratories Inc., Livermore, Calif.) were housed three per cage and maintained in a humidity-controlled (40-60%) and temperature-controlled (68-72° F.) facility on a 12 h:12 h light/dark cycle (lights on at 6:30 am) with free access to food (Harlan Teklad, Orange, Calif., Rodent Diet 8604) and water. Rats were allowed one week of habituation to the animal facility before starting treatment.\nRats were treated intraperitoneally, with 2 mg/kg of paclitaxel (Sigma Aldrich, Saint Louis, Mo.) in 10% Cremophor vehicle (500 μL) on days 0, 2, 4, and 6.\nTactile allodynia was tested using von Frey filaments. Briefly, the von Frey assay was performed using the standardized up down method with von Frey filaments, that determine the tactile sensitivity of the paw. By applying the increasingly or decreasingly thicker filaments to the paw in a logarithmic scale of actual force, a linear scale of perceived intensity is determined.\nEight days after the start of paclitaxel dosing, a baseline measurement (von Frey assay) was performed prior to dosing of compounds. […] As a positive control, rats were dosed intraperitoneally with 100 mg/kg gabapentin in water. The dosing volume for oral and peritoneal treatment was 500 μL. […]"}, "[3]": {"test_system": "MIA model of osteoarthritis", "experiment": "MIA model of osteoarthritis pain (von Frey, weight distribution, grip strength)", "type": "in vivo, male Sprague Dawley rats", "settings": "3, 10 and 30 mg/kg orally, one hour after dosing, FIG. 2", "text": "Example 5: Effect of Compounds on Osteoarthritis Pain\nInjection of monosodium iodoacetate (MIA) into a joint (Kalbhen, 1987) inhibits the activity of glyceraldehyde-3-phosphate dehydrogenase in chondrocytes, resulting in disruption of glycolysis and eventually in cell death. The progressive loss of chondrocytes results in histological and morphological changes of the articular cartilage, closely resembling those seen in osteoarthritis patients.\nThe osteoarthritis was induced in 200 g male Sprague Dawley rats. […]\nTypically during disease progression, there was an inflammation period of 0-7 days post-intra-articular injection followed by progressive degeneration of the cartilage and subchondral bone from days 14-55. […] Tactile allodynia was measured via von Frey assay, hind limb paw weight distribution was monitored using an incapacitence tester (Columbus Instruments, Columbus, Ohio, USA) and hind limb grip strength was measured using a grip strength meter (Columbus Instruments, Columbus, Ohio, USA). […] Hind paw weight distribution was determined by placing rats in a chamber so that each hind paw rests on a separate force plate of the incapacitence tester. The force exerted by each hind limb (measured in grams) is averaged over a 3 second period. Three measurements were taken for each rat, and the change in hind paw weight distribution calculated. […]"}, "[4]": {"test_system": "hypersensitivity following ligation of spinal nerves", "settings": "rats, cited from earlier work"}, "hyperalgesia": {"test_system": "hyperalgesia", "settings": "rodents, systemic delivery; cited from earlier work"}, "[5]": {"test_system": "Streptozotocin-Induced Painful Diabetic Peripheral Neuropathy (PDPN) Model", "experiment": "Streptozotocin-induced painful diabetic peripheral neuropathy (PDPN) model", "type": "in vivo, male Sprague-Dawley rats", "settings": "10 mg/kg orally in 0.5% methylcellulose; 1, 4 and 6 hours post-dosing, FIG. 17 and FIG. 18", "description": "Example 12: Streptozotocin-Induced Painful Diabetic Peripheral Neuropathy (PDPN) Model\nMale Sprague-Dawley rats were injected intraperitoneally with 50 mg/kg of streptozotocin (STZ) in sodium citrate buffer. 10% sucrose water was provided ad libitum for the first 48 hours post-STZ followed by regular drinking water. Rats were monitored once weekly for blood glucose levels and body weights. Development of tactile allodynia over time was analyzed using Von Frey filaments and a 50% withdrawal threshold was determined using Dixon's up-down procedure. […] Tactile allodynia was evaluated at 1, 4 and 6 hours post-dosing."}, "RPE cells": {"test_system": "RPE cells", "settings": "cited from earlier work"}, "acute and chronic pain": {"test_system": "acute and chronic pain", "settings": "animal studies; cited from earlier work"}, "vagus nerve preparations": {"test_system": "vagus nerve preparations", "settings": "guinea pig and human vagus nerve preparations in vitro; cited from earlier work"}, "EAE": {"test_system": "EAE", "settings": "cited from earlier work"}, "atherosclerosis": {"test_system": "atherosclerosis", "settings": "cited from earlier work"}, "[6]": {"test_system": "allergic contact dermatitis", "settings": "mouse, injection; cited from earlier work"}, "[7]": {"test_system": "histamine-induced responses", "settings": "human skin, topical administration; cited from earlier work"}, "[8]": {"test_system": "capsaicin-induced hyperalgesia and allodynia", "settings": "humans, topical administration; cited from earlier work"}, "[9]": {"test_system": "bovine nasal cartilage explants", "settings": "bovine nasal cartilage explants in vitro; cited from earlier work"}, "[10]": {"test_system": "bone marrow-derived osteoblasts/stromal cells", "settings": "in vitro; cited from earlier work"}, "[11]": {"test_system": "ovariectomy-induced bone loss", "settings": "in vivo; cited from earlier work"}, "cough": {"test_system": "cough", "settings": "conscious guinea-pigs, administration prior to citric acid; cited from earlier work"}, "CB1": {"test_system": "CB1", "settings": "exogenous administration; cited from earlier work"}}, "data": [{"compound": "CC(C)(CO)NC(=O)c1nn(-c2ccc(F)cc2F)c2c1C[C@H]1C[C@@H]21", "note": "[Compound 493, (1aR,5aR)-2-(2,4-Difluoro-phenyl)-1a,2,5,5a-tetrahydro-1H-2,3-diaza-cyclopropa[a]pentalene-4-carboxylic Acid (2-Hydroxy-1,1-dimethyl-ethyl)-amide]", "values": [{"measurement": "paw withdrawal threshold (PWT) in comparison with the vehicle", "setting": "[1]", "result": "increase in paw withdrawal threshold (PWT)"}, {"measurement": "time of maximum efficacy post-dosing", "setting": "[2]; von Frey time course", "result": 1, "unit": "h"}, {"measurement": "paw withdrawal threshold (PWT) in comparison with vehicle and gabapentin", "setting": "[2]; 30, 60 and 180 minutes after dosing, FIG. 3", "result": "increase in paw withdrawal threshold (PWT)"}, {"measurement": "paw withdrawal threshold (PWT) in comparison with vehicle", "setting": "[3]", "result": "Increase in paw withdrawal threshold (PWT)"}]}, {"compound": "CN1CCCCC1Cn1cc(C(=O)c2cc([N+](=O)[O-])ccc2I)c2ccccc21", "note": "(centres unmarked) [AM1241]", "values": [{"measurement": "tactile and thermal hypersensitivity", "setting": "[4]; local (subcutaneous) or systemic administration, chronic constriction injury model", "result": "reverses"}, {"measurement": "hyperalgesia induced in the carrageenan, capsaicin, and formalin models", "setting": "hyperalgesia", "result": "suppresses"}]}, {"compound": "CC(C)(NC(=O)c1nn(-c2c[n+]([O-])ccn2)c2c1C[C@@H]1C[C@H]21)C(F)(F)F", "note": "[Compound 919, (1aS,5aS)-2-(4-Oxy-pyrazin-2-yl)-1a,2,5,5a-tetrahydro-1H-2,3-diaza-cyclopropa[a]pentalene-4-carboxylic acid (2,2,2-trifluoro-1,1-dimethyl-ethyl)-amide]", "values": [{"measurement": "analgesic efficacy (tactile allodynia, 50% withdrawal threshold)", "setting": "[5]", "result": "robust and sustained analgesic efficacy over 6 hours"}]}, {"compound": "COc1ccc(C(=O)c2c(C)n(CCN3CCOCC3)c3cc(I)ccc23)cc1", "note": "[AM630]", "values": [{"measurement": "inhibition of the AM1241 effect on tactile and thermal hypersensitivity", "setting": "[4]", "result": "inhibited"}]}, {"compound": "CC(C)(C)[C@@H](CO)NC(=O)c1nn(-c2c[n+]([O-])ccn2)c2c1C[C@@H]1C[C@H]21", "note": "[Compound 699, (1aS,5aS)-2-(4-Oxy-pyrazin-2-yl)-1a,2,5,5a-tetrahydro-1H-2,3-diaza-cyclopropa[a]pentalene-4-carboxylic Acid ((S)-1-Hydroxymethyl-2,2-dimethyl-propyl)-amide]", "values": [{"measurement": "analgesic efficacy (tactile allodynia, 50% withdrawal threshold)", "setting": "[5]", "result": "robust and sustained analgesic efficacy over 6 hours"}]}, {"compound": "CCCCCCC(C)(C)c1ccc([C@@H]2C[C@H](O)CC[C@H]2CCCO)c(O)c1", "note": "[CP55,940]", "values": [{"measurement": "protection of RPE cells from oxidative damage", "setting": "RPE cells", "result": "significantly protects"}, {"measurement": "effect against acute and chronic pain from chemical, mechanical, and thermal pain stimuli", "setting": "acute and chronic pain", "result": "effective"}, {"measurement": "capsaicin-, PGE2- and hypertonic saline-induced depolarization", "setting": "vagus nerve preparations", "result": "reduces"}]}, {"compound": "COc1ccc2c(c1)c(CCN1CCOCC1)c(C)n2C(=O)c1cccc(Cl)c1Cl", "note": "[GW405833]", "values": [{"measurement": "hypersensitivity to mechanical stimuli", "setting": "[4]; administered systemically", "result": "significantly reverses"}]}, {"compound": "CCCCCc1cc(O)c2c(c1)OC(C)(C)[C@@H]1CCC(C)=C[C@@H]21", "note": "[THC]", "values": [{"measurement": "severity of clinical disease", "setting": "EAE; EAE mouse model", "result": "significantly inhibits"}, {"measurement": "progression of atherosclerosis", "setting": "atherosclerosis; ApoE knockout mice", "result": "reduces"}, {"measurement": "effect against acute and chronic pain from chemical, mechanical, and thermal pain stimuli", "setting": "acute and chronic pain", "result": "effective"}, {"measurement": "cutaneous inflammation and the pruritis (itch) associated with it", "setting": "[6]", "result": "reduces"}]}, {"compound": "SR144528", "values": [{"measurement": "blockade of the WIN 55212-2 effect on leukocyte rolling and adhesion", "setting": "EAE; EAE mouse model", "result": "blocked"}, {"measurement": "blockade of the THC effect on atherosclerosis", "setting": "atherosclerosis; in vitro and in vivo", "result": "completely blocks"}, {"measurement": "cutaneous inflammation and the pruritis (itch) associated with it", "setting": "[6]", "result": "exacerbates"}]}, {"compound": "CCCCCCC(C)(C)c1cc(O)c2c(c1)OC(C)(C)[C@@H]1CC=C(CO)C[C@@H]21", "note": "[HU-210]", "values": [{"measurement": "histamine-induced responses", "setting": "[7]", "result": "reduces"}, {"measurement": "capsaicin-induced hyperalgesia and allodynia", "setting": "[8]", "result": "attenuates"}, {"measurement": "IL-1alpha-stimulated proteoglycan and collagen degradation", "setting": "[9]", "result": "significantly inhibit"}]}, {"compound": "CCCn1c(C)c(C(=O)c2cccc3ccccc23)c2ccccc21", "note": "[JWH015]", "values": [{"measurement": "protection of RPE cells from oxidative damage", "setting": "RPE cells", "result": "comparable protection"}]}, {"compound": "CCCCCCC(C)(C)c1cc(OC)c([C@@H]2C=C(CO)[C@@H]3C[C@H]2C3(C)C)c(OC)c1", "note": "[HU-308]", "values": [{"measurement": "recruitment of immature myeloid cells and T cells, microglial and infiltrating myeloid cell proliferation, and axonal loss", "setting": "EAE; EAE model", "result": "markedly reduces"}, {"measurement": "endocortical osteoblast numbers and activity", "setting": "[10]", "result": "enhances"}, {"measurement": "proliferation of osteoclast precursors", "setting": "[10]", "result": "inhibiting"}, {"measurement": "ovariectomy-induced bone loss", "setting": "[11]", "result": "attenuates"}]}, {"compound": "Cc1c(C(=O)NN2CCCCC2)nn(-c2ccc(Cl)cc2Cl)c1-c1ccc(Cl)cc1", "note": "[Compound S141716A, S141716A]", "values": [{"measurement": "cutaneous inflammation and the pruritis (itch) associated with it", "setting": "[6]", "result": "exacerbates"}]}, {"compound": "CCCC(C)(C)c1ccc2c(c1)OC(C)(C)[C@@H]1CC=C(C)C[C@@H]21", "note": "[JWH133]", "values": [{"measurement": "cough", "setting": "cough", "result": "significantly reduces"}, {"measurement": "capsaicin-, PGE2- and hypertonic saline-induced depolarization", "setting": "vagus nerve preparations", "result": "reduces"}]}, {"compound": "CCCCC/C=C\\C/C=C\\C/C=C\\C/C=C\\CCCC(=O)NCCCl", "note": "[arachidonyl-2-chloroethylamide]", "values": [{"measurement": "pain", "setting": "CB1", "result": "reduces"}]}]}
